The values below come from US11879848B2, “Graphene-based multi-modal sensors” (The Regents of the University of California, priority 2015, dated 2024).

This assay has as its system neonatal rat cardiomyocytes (CM). Description: cardiomyocyte contractions registered by PMMA/AuNI/graphene strain sensor in electrophysiological chamber. The class given is cell-based. Conditions: 10 μM blebbistatin in the solution around the cells; CM culture on PMMA/AuNI/graphene; room temperature. Here is the method:
The graphene/metal nanoisland composite film structures can also be deployed in biological settings. For example, the performance of graphene/AuNI sensors in biological settings is tested by culturing neonatal rat cardiomyocytes (CM) on coverslips that are coated with a composite polymethylmethacrylate (PMMA)/AuNI/graphene film structure.
Using a specialized chamber shown in FIG. 4c and detailed below, reversible changes in the sensor signal that correlated with the spontaneous activity of cardiomyocytes can be detected, as shown in FIG. 4d.
An excitation-contraction uncoupler such as blebbistatin, that inhibits myosin cycling and stops the contractions of the cells, but not the electrical activity, can be used to distinguish whether the signal detected by the strain sensor was related to the contractile or electrical activity of the cells.
Electrophysiology. Neonatal rat ventricular cardiomyocytes were isolated using the neonatal rat cardiomyocyte isolation kit (Worthington) and cultured at 37° C. with 5% CO2. In brief, ventricles were dissected from 1 d-old Hsd:SD rats (Sprague Dawley), then digested overnight at 4° C. with trypsin. Digestion continued the following morning with collagenase for approximately 60 min at 37° C. […]

In the case of `Cc1ccc2c(c1)C(=O)C1(O)CCN(c3ccccc3)C1=N2` (stereo not shown) [blebbistatin], the “modulations of the sensor signal (contractions of the cells)” value is “No noticeable modulations of the signal”.
